How the values were obtained:
HaCaT keratinocytes = experiment: Proliferation of HaCaT keratinocytes (Cell Titer Viability Assay, luminescence); type: cell-based; conditions: 48 hours; for inhibition of proliferation of keratinocytes: comparable to negative control
Protocol: As further control cells were used, which were only incubated in KBM (KBM).
For this purpose 5×10^3 HaCaT keratinocytes were seeded into 60 wells of a 96 well-plate in 200 μl KBM/10% FCS each and incubated for 24 hours at 37° C. […] At the end of the second incubation period the medium was removed and the proliferation of cells was determined with the Cell Titer Viability Assay of Promega (#G7571/G7572) according to the manufacturer's instructions. A lowered luminescence with respect to the positive control (in RLU relative luminescence units) correlated with a lowered proliferation. Values obtained from the wells without cells were subtracted from the mean of the 6 wells with cells as background value. At least 4 independent experiments were carried out.

[1] = administration of up to 100 mg, therapy of lateral sclerosis; cited from earlier work

Q: For `Nc1nc2ccc(OC(F)(F)F)cc2s1` [Riluzole, 2-amino-6-(trifluoromethoxy)-benzothiazole], which “inhibition of proliferation of keratinocytes” value (HaCaT keratinocytes; 100 μmol/l Riluzole) is on record?
A: complete inhibition of proliferation

Q: And the “inhibition of proliferation of keratinocytes” value (HaCaT keratinocytes; 250 μmol/l Riluzole)?
A: complete inhibition of proliferation

Q: And the “concentration at which an inhibition of the proliferation was already observed” value (HaCaT keratinocytes; HaCaT keratinocytes, versus control KBM+10% FCS)?
A: 1 µmol/L

Q: What about the adverse effect anestenia [1] of the same compound?
A: 18 % of the treated patients

Q: And the adverse effect nausea [1]?
A: 16 % of all treated patients
